Source: patent US20220324865A1 (Bayer Aktiengesellschaft, priority 2018, published 2022)

molecular target: T1, human EP3 receptor (Homo sapiens, UniProt P43115); assay: Cellular in vitro assay for determining EP3 receptor activity (human EP3 cell line, sulprostone-stimulated calcium luminescence); type: cell-based; settings: CHO cells expressing human EP3 and mitochondrial Clytin; antagonist mode, sulprostone at EC50; read-out: EP3 CHO mtCLY ANTAG IC50
T1 construct: expressed in transfected cells; host or cells: CHO K1 (Chinese Hamster Ovary), stably co-transfected with Galpha16 and mitochondrial clytin
T1 sequence (P43115 1-390): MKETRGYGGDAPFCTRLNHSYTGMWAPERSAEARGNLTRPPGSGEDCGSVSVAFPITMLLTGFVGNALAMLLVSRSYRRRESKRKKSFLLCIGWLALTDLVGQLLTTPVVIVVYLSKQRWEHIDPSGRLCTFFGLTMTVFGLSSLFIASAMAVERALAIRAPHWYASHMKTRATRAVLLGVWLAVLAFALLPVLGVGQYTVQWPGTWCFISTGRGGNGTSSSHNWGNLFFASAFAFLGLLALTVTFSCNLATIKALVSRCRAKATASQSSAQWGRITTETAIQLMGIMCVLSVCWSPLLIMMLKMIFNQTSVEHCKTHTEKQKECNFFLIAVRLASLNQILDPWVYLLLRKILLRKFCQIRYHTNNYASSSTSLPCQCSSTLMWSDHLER
How it was run: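 Antagonist activity was measured as inhibition of the luminescent calcium signal elicited by EC50 sulprostone, following 10 min compound pretreatment. The cell line was recombinant CHO K1 co-expressing human EP3, Gα16 and the photoprotein Clytin, reconstituted with coelenterazine.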

SMILES	IC50 [nM]
Cc1ccc(-c2cn3nc(C(=O)N[C@H](CCO)c4ccc(F)cc4)c(C4CC4)c3c(=O)[nH]2)cc1C [Example 1-83, 3-Cyclopropyl-6-(3,4-dimethylphenyl)-N-[(1R)-1-(4-fluorophenyl)-3-hydroxpropyl]-4-oxo-4,5-dihydropyrazolo[1,5-a]pyrazine-2-carboxamide]	0.523
Cc1ccc(-c2cn3nc(C(=O)N[C@H](C)c4ccc(F)cc4)c(C4CC4)c3c(=O)[nH]2)cc1C [Example 1-84, 3-Cyclopropyl-6-(3,4-dimethylphenyl)-N-[(1R)-1-(4-fluorophenyl)ethyl]-4-oxo-4,5-dihydropyrazolo[1,5-a]pyrazine-2-carboxamide]	1.2
CCN(CCO)CC(NC(=O)c1cc2c(=O)[nH]c(-c3ccc(C)c(C)c3)cn2n1)c1ccccc1 (stereo not drawn) [Example 1-85, 6-(3,4-Dimethylphenyl)-N-[2-[ethyl(2-hydroxyethyl)amino]-1-phenylethyl]-4-oxo-5H-pyrazolo-[1,5-a]pyrazine-2-carboxamide]	3
Cc1ccc(-c2cn3nc(C(=O)NC(CCO)c4ccc(C(F)(F)F)cc4)cc3c(=O)[nH]2)cc1C (stereo not drawn) [Example 1-86, 6-(3,4-Dimethylphenyl)-N-[3-hydroxy-1-[4-(trifluoromethyl)phenyl]propyl]-4-oxo-5H-pyrazolo-[1,5-a]pyrazine-2-carboxamide]	0.715
COC[C@@H](NC(=O)c1nn2cc(-c3cnc4cccc(C)c4c3)[nH]c(=O)c2c1C(C)C)c1ccccc1 [Example 1-87, N-[(1S)-2-Methoxy-1-phenylethyl]-6-(5-methylquinolin-3-yl)-4-oxo-3-(propan-2-yl)-4,5-dihydropyrazolo[1,5-a]pyrazine-2-carboxamide]	2.85
Cc1cccc2ncc(-c3cn4nc(C(=O)N[C@H](CCO)c5ccccc5)c(C(C)C)c4c(=O)[nH]3)cc12 [Example 1-88, N-[(1R)-3-Hydroxy-1-phenylpropyl]-6-(5-methylquinolin-3-yl)-4-oxo-3-(propan-2-yl)-4,5-dihydropyrazolo[1,5-a]pyrazine-2-carboxamide]	1.35
Cc1cccc2ncc(-c3cn4nc(C(=O)N[C@@H](c5ccc(F)cc5)C(C)(C)O)c(C(C)C)c4c(=O)[nH]3)cc12 [Example 1-89, N-[(1S)-1-(4-Fluorophenyl)-2-hydroxy-2-methylpropyl]-6-(5-methylquinolin-3-yl)-4-oxo-3-(propan-2-yl)-4,5-dihydropyrazolo[1,5-a]pyrazine-2-carboxamide]	1.03
Cc1ccc(-c2cn3nc(C(=O)N[C@H](C)c4ccc(F)cc4)c(C(C)C)c3c(=O)[nH]2)cc1C [Example 1-90, 6-(3,4-Dimethylphenyl)-N-[(1R)-1-(4-fluorophenyl)ethyl]-4-oxo-3-(propan-2-yl)-4,5-dihydropyrazolo[1,5-a]pyrazine-2-carboxamide]	0.515
Cc1ccc(-c2cn3nc(C(=O)NC4(c5ccc(F)cc5)CN(C)C4)c(C(C)C)c3c(=O)[nH]2)cc1C [Example 1-91, 6-(3,4-Dimethylphenyl)-N-[3-(4-fluorophenyl)-1-methylazetidin-3-yl]-4-oxo-3-(propan-2-yl)-4,5-dihydropyrazolo[1,5-a]pyrazine-2-carboxamide]	0.915
Cc1ccc(-c2cn3nc(C(=O)N[C@H](CCO)c4ccc(F)cc4)c(C(C)C)c3c(=O)[nH]2)cc1C [Example 1-92, 6-(3,4-Dimethylphenyl)-N-[(1R)-1-(4-fluorophenyl)-3-hydroxpropyl]-4-oxo-3-(propan-2-yl)-4,5-dihydropyrazolo[1,5-a]pyrazine-2-carboxamide]	0.625
Cc1ccc(-c2cn3nc(C(=O)NC4(c5ccc(F)cc5)CN(C)C4)c(C(F)(F)F)c3c(=O)[nH]2)cc1C [Example 1-93, 6-(3,4-Dimethylphenyl)-N-[3-(4-fluorophenyl)-1-methylazetidin-3-yl]-4-oxo-3-(trifluoromethyl)-4,5-dihydropyrazolo[1,5-a]pyrazine-2-carboxamide]	3.58
CN1CC(NC(=O)c2cc3c(=O)[nH]c(-c4ccc5c(c4)CCC5)cn3n2)(c2ccc(F)cc2)C1 [Example 1-96, 6-(2,3-Dihydro-1H-inden-5-yl)-N-[3-(4-fluorophenyl)-1-methylazetidin-3-yl]-4-oxo-4,5-dihydropyrazolo[1,5-a]pyrazine-2-carboxamide]	2.65
O=C(N[C@H](CCO)c1ccc(F)cc1)c1cc2c(=O)[nH]c(-c3ccc4c(c3)CCC4)cn2n1 [Example 1-97, 6-(2,3-Dihydro-1H-inden-5-yl)-N-[(1R)-1-(4-fluorophenyl)-3-hydroxpropyl]-4-oxo-4,5-dihydropyrazolo[1,5-a]pyrazine-2-carboxamide]	0.88

Next, values leading:

IC50 [nM]	SMILES
1.18	O=C(N[C@H](CO)c1ccccc1)c1nn2cc(-c3ccc4ccccc4c3)[nH]c(=O)c2c1C(F)(F)F [Example 1-77, N-[(1S)-2-Hydroxy-1-phenylethyl]-6-(naphthalen-2-yl)-4-oxo-3-(trifluoromethyl)-4,5-dihydropyrazolo[1,5-a]pyrazine-2-carboxamide]
1.06	O=C(N[C@H]1c2ccccc2C[C@@H]1O)c1nn2cc(-c3ccc4ccccc4c3)[nH]c(=O)c2c1C(F)(F)F [Example 1-78, N-[(1S,2S)-2-Hydroxy-2,3-dihydro-1H-inden-1-yl]-6-(naphthalen-2-yl)-4-oxo-3-(trifluoromethyl)-4,5-dihydropyrazolo[1,5-a]pyrazine-2-carboxamide]
0.6	COc1ccc([C@@H](C)NC(=O)c2nn3cc(-c4ccc5ccccc5c4)[nH]c(=O)c3c2C(F)(F)F)cn1 [Example 1-79, N-[(1R)-1-(6-Methoxpyridin-3-yl)ethyl]-6-(naphthalen-2-yl)-4-oxo-3-(trifluoromethyl)-4,5-dihydro-pyrazolo[1,5-a]pyrazine-2-carboxamide]
6.68	Cc1ccc(-c2cn3nc(C(=O)N[C@H]4c5ccccc5C[C@@H]4O)cc3c(=O)[nH]2)cc1C [Example 1-80, 6-(3,4-Dimethylphenyl)-N-[(1S,2S)-2-hydroxy-2,3-dihydro-1H-inden-1-yl]-4-oxo-4,5-dihydropyrazolo[1,5-a]pyrazine-2-carboxamide]
1.59	C[C@@H](NC(=O)c1nn2cc(-c3ccc4ccccc4c3)[nH]c(=O)c2c1C1CC1)c1ccc(F)cc1 [Example 1-81]
4.6	CN1CC(NC(=O)c2nn3cc(-c4ccc5ccccc5c4)[nH]c(=O)c3c2C2CC2)(c2ccc(F)cc2)C1 [Example 1-82, 3-Cyclopropyl-N-[3-(4-fluorophenyl)-1-methylazetidin-3-yl]-6-(naphthalen-2-yl)-4-oxo-4,5-dihydropyrazolo[1,5-a]pyrazine-2-carboxamide]
0.765	Cc1ccc(-c2cn3nc(C(=O)N[C@H](CCO)c4ccc(F)cc4)c(C(F)(F)F)c3c(=O)[nH]2)cc1C [Example 1-94, 6-(3,4-Dimethylphenyl)-N-[(1R)-1-(4-fluorophenyl)-3-hydroxpropyl]-4-oxo-3-(trifluoromethyl)-4,5-dihydropyrazolo[1,5-a]pyrazine-2-carboxamide]
1.7	Cc1ccc(-c2cn3nc(C(=O)N[C@H](C)c4ccc(F)cc4)c(C(F)(F)F)c3c(=O)[nH]2)cc1C [Example 1-95, 6-(3,4-Dimethylphenyl)-N-[(1R)-1-(4-fluorophenyl)ethyl]-4-oxo-3-(trifluoromethyl)-4,5-dihydropyrazolo[1,5-a]pyrazine-2-carboxamide]
